Reference: US11931351B2, “(S)-3-[1-methylpyrrolidin-2-yl]pyridine, analogues thereof, precursors thereof, or its derivatives, for the use as a pharmaceutical in form of a parenteral administration and a process for the preparation of an injectable substance” (priority 2019, dated 2024)
Converted amounts (≈) assume the structure as drawn.

What was measured:
[1] = tested on: WI-38 cells; settings: WI-38, 96 hours incubation, MTT
[2] = in vitro; settings: human, HS683 cells (neuronal glioma cell line)
Procedure: (§1) In a further example cytotoxicity tests were performed with three different cell lines (FIG. 2a, 2b, 2c): • WI-38 (human diploid cell line from normal embryonic lung tissue) • A549 (human lung adenocarcinoma epithelial cell line) and • HS683 (human neuronal glioma cell line).
(§2) Thereby, cell viability was determined on the basis of the mitochondria-dependent reduction of MTT (3-[4,5-dimethyltiazol 2yl]-2,5-diphenyltetrazolium bromide) to formazan. […] Next cells were treated with 20 μl of MTT. After 3 hours of incubation at 37° C., the formazan blue formed in the cells was dissolved in 100 μl of SDS (sodium dodecylsulfate) for 3 hours in 37° C. The optical density was measured at 570 nm.
(§3) After the cytotoxicity tests LC50 (LC50-lethal concentration, 50%-dose required to kill half of the cells after a specified test duration) were estimated for each cell lines and PBLs (leukocytes of peripheral blood).

[3] = tested on: H1N1 virus; settings: 0,002 mg/kg each 24 hours; 24 hours after treatment; versus control group
[4] = tested on: IL-6 production; settings: human PBLs; 1 mg/ml, 500 μg/ml, 300 μg/ml
[5] = background statement; cited from earlier work
[6] = background statement; cited from earlier work; remark: listed apart in the source
[7] = in vitro; settings: human, A549 cells (lung adenocarcinoma epithelial cell line)
Procedure: as §1, §2, §3

[8] = tested on: HS-683 cells; test: cells; settings: Homo sapiens, Hs 683, 96 h, read-out: concentration that inhibits 50% of the proliferation
[9] = in vitro; settings: human, peripheral blood leukocytes (PBLs)
Procedure: as §2
(§4) After the cytotoxicity tests LC50 (LC50-lethal concentration, 50%-dose required to kill half of the cells after a specified test duration) were estimated for each cell lines and PBLs (leukocytes of peripheral blood). Additionally for PBLs LC10 and LC5 were calculated.
(§5) On the basis of the results of MTT assay for human leukocytes the LC50, LC10 and LC5 were evaluated.

[10] = tested on: human PBLs (leukocytes of peripheral blood); settings: MTT, 48 hours
Procedure: as §2, §4, §5

[11] = in vitro; settings: human, WI-38 cells (normal embryonic lung diploid cell line)
Procedure: as §1, §2, §3

[12] = tested on: A549 cells; settings: A549, 96 hours incubation, MTT
[13] = tested on: A549 cells; test: cells; settings: Homo sapiens, A549, 96 h, read-out: concentration that inhibits 50% of the proliferation
[14] = after 72 h treatment, n=10 per group; compared to antimicrobians/antimycotics (group B) and no treatment (group C)
[15] = tested on: WI-38 cells; test: cells; settings: Homo sapiens, WI-38, 96 h, read-out: concentration that inhibits 50% of the proliferation
[16] = tested on: WI-38, A549 and HS 683; test: cells; settings: Homo sapiens, read-out: doses that inhibit 50% of cell proliferation (summary)
[17] = tested on: HS-683 cells; settings: HS-683, 96 hours incubation, MTT

CN1CCC[C@H]1c1cccnc1 [(S)-3-[1-Methylpyrrolidin-2-yl]pyridine]
concentration that inhibits 99% of the proliferation [1]: 4.5 mg/mL | CC50 at 48 h [2]: 3500 µg/mL (≈ 21.6 mM) | egg production of H1N1 infected chicken [3]: began to lay off eggs | effect on IL-6 production [4]: no effect | miscibility with water [5]: miscible with water | solubility in alcohol, ether or light petroleum [5]: readily soluble | half-life in the body [6]: approximately two | CC50 at 48 h [7]: 4500 µg/mL (≈ 27.7 mM) | IC50 [8]: 2900 µg/mL (≈ 17.9 mM) | CC50 at 48 h [9]: 7000 µg/mL (≈ 43.1 mM) | LC5 [10]: 0.5 mg/mL | LC10 [10]: 1000 µg/mL (≈ 6.16 mM) | CC50 at 48 h [11]: 3000 µg/mL (≈ 18.5 mM) | concentration that inhibits 99% of the proliferation [12]: 5.5 mg/mL | IC50 [13]: 2000 µg/mL (≈ 12.3 mM) | healing effect on ulcer [14]: increased healing effect | IC50 [15]: 1000 µg/mL (≈ 6.16 mM) | IC50 [16]: > 1000 µg/mL | concentration that inhibits 99% of the proliferation [17]: 5.5 mg/mL
